Assay [1] deals with T1, prolyl endopeptidase from canine brain (Canis lupus familiaris, UniProt A0A8I3N6C8).
T1 construct: A prolyl endopeptidase was prepared from canine brains; from tissue; host or cells: canine brain
In words: Inhibitory Activity Against Prolyl Endopeptidase From Brain. In kind it is biochemical. The note with it: 37° C., pH 7.0, substrate benzyloxycarbonylglycylprolylparanitroanilide; read-out: Inhibition Potency, IC50. Here is the method: Following buffer solutions were used for the measurement.
Buffer A: 20 mM Tris-HCl buffer (pH 7.0)
Buffer B: Buffer A containing 0.1% gelatin, 1 mM EDTA, and 1 mM 2-mercaptoethanol
This solution (50 μl) was added to 940 μl of the Buffer A, and the solution thus obtained was left at 37° C. for 10 minutes (This solution is herein referred to as "Enzyme solution"). A mixed solution of 50 μl of the Buffer B and 940 μl of Buffer A was used as a "Correction solution".
A test compound was dissolved in dimethylsulfoxide, and 10 μl of the solution was added to the Enzyme solution. The mixture was stirred and allowed to stand at 37° C. for 10 minutes. Separately, 10 μl of dimethylsulfoxide was added to the Enzyme solution and was processed in the same manner. The solution thus obtained was served as a "Control solution". The same procedure was carried out on the Correction solution.
One hundred (100) μl of 2.5 mM benzyloxycarbonylglycylprolylparanitroanilide, which was dissolved with 40% dioxane, was added to each of the above 3 solutions, i.e., the Enzyme solution with the test compound, Control solution, and Correction solution, and the reaction was carried out at 37° C. for 10 minutes.
Enzyme activities were determined by subtracting the blank value, i.e., the absorbance measured on the Correction solution, from the absorbance of each of the sample solutions and of the Control solution.

The test system of another assay is ICR male mice. In words: Anti-Hypoxic Activity (survival time in 4% O2 + 96% N2). It counts as in vivo. As to conditions: Mus musculus, ip. Here is the method:
Groups of ICR male mice (Charles River Co.), age 4 to 5 weeks, each group consisting of 10 mice and each mouse having been fasted for 24 hours, were used for the test. Mice were placed in a transparent desiccator (diameter: 19 cm, height: 30 cm) made of synthetic resin and having 2 valves, one at the upper portion and the other at the lower portion, for replacing the gas therein. A mixed gas (4% O2 +96% N2) was fed from the upper valve at a rate of 10 l/min to measure the period of time until respiratory arrest took place for each mouse. The time measured was taken as the survival time.
Each tested compound suspended in an solvent was intraperitoneally administered 30 minutes before the start of the mixed gas feeding. A group of mice to which only the solvent was intraperitoneally administered was used as a control.
The anti-hypoxic activity was determined according to the following formula, [formula]

A further assay concerns CD female rats. Put plainly: Anti-Amnesic Activity (passive avoidance, electric convulsive shock). The note with it: 30 mg/kg P.O., one hour before acquisition trial; ECS; retention trial at 24 hours; solvent + sham 133.0, solvent + ECS 0.8. It counts as in vivo. Here is the method:
Compounds of this invention were checked with respect to their abilities to prevent the inhibition of long-term memory fixation by electric convulsive shock (ECS). CD female rats (Charles River), weighed 160-180 g were used for the test. One hour after the administration of a compound of this invention, the acquisition trial according to the passive avoidance training was performed on the rats. A foot shock was given to the rats when they entered into a dark room. Immediately after that an amnesic treatment by ECS or a sham amnesic treatment was performed. Twenty four (24) hours after the acquisition trial the retention trial was performed. Latency of the […] entering into a dark room was measured.

Setting [2] is: 100 mg/kg i.p., 30 minutes before mixed gas, control = 100, read-out: Anti-hypoxic Activity.
The mark [3] stands for this setting: read-out: Anti-hypoxic Activity.

Read-outs that look alike come from different tables or passages of the source.

T1 sequence (A0A8I3N6C8 1-710): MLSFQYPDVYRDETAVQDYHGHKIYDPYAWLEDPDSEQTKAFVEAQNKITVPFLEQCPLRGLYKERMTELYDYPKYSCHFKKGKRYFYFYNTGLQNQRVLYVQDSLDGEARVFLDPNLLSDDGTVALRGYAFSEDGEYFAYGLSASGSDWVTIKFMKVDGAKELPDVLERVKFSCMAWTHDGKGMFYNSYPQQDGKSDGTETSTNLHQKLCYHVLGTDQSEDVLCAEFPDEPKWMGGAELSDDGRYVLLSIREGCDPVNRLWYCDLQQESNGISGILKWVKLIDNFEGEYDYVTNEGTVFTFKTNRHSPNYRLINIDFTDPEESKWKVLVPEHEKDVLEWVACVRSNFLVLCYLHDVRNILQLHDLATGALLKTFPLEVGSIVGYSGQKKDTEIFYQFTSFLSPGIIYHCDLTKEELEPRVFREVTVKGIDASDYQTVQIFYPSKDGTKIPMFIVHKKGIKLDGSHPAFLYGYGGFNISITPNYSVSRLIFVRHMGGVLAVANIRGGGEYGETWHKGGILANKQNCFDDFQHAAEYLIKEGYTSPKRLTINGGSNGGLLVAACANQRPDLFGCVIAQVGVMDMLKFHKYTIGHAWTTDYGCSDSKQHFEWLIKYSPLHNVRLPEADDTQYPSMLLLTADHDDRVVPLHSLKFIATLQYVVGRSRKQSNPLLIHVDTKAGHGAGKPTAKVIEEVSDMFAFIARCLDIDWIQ

As to `O=C(C1CSCCN1C(=O)CC1Cc2ccccc2C1)N1CCSC1` (racemic) [Example 5, 3-[4-(2-indanylacetyl)-DL-1,4-thiazan-3-ylcarbonyl]thiazolidine], the IC50 in assay [1] is 0.022 µM.

Consider `O=C([C@@H]1CCCN1C(=O)CC1=Cc2ccccc2C1)N1CCSC1` [Example 18, 3-[1-(2-indenylacetyl)-L-prolyl]thiazolidine], for which the IC50 in assay [1] is 0.043 µM.

Take `O=C([C@@H]1CSCN1C(=O)CCCC1Cc2ccccc2C1)N1CCCC1` [Example 26, 1-{3-[4-(indan-2-yl)butanoyl]-L-thioprolyl}pyrrolidine]: the response vs control in vivo at 100 mg/kg in the assay on ICR male mice (setting [2]) worked out at 291%.

Consider `O=C([C@@H]1CCCN1C(=O)CC1CCc2ccccc2C1)N1CCCC1` (stereo partly drawn) [Example 24, 1-[1-(1,2,3,4-tetrahydronaphthalen-2-ylacetyl)-L-prolyl]pyrrolidine], for which the response vs control in vivo at 100 mg/kg with ICR male mice (setting [2]) was 235%.

On to `O=C([C@@H]1CCCN1C(=O)CC1Cc2ccccc2C1)N1CCCC1` [Example 4, 1-[1-(2-indanylacetyl)-L-prolyl]pyrrolidine], for which, in the assay on ICR male mice (setting [2]), the response vs control in vivo at 100 mg/kg is 141%.

For the compound `CC(C)(CO)[C@@H](O)C(=O)NCCCC(=O)O` [Calcium hopantenate, reference compound], the response vs control in vivo at 250 mg/kg in the assay with ICR male mice (250 mg/kg i.p., 30 minutes before mixed gas, control = 100) is 135%.

`COC1=C(OC)C(=O)C(CCCCCCCCCCO)=C(C)C1=O` [Idebenone, reference compound]: the response vs control in vivo at 100 mg/kg in the assay with ICR male mice (setting [2]) was found to be 140%.

With `O=C([C@@H]1CCCCN1C(=O)CC1Cc2ccccc2C1)N1CCCC1` [Example 10, 1-[1-(2-indanylacetyl)-L-piperidine-2ylcarbonyl]pyrrolidine], in assay [1], the half-maximal inhibitory concentration (IC50) turned out to be 0.049 µM.

Take `O=C(O)[C@@H]1CCCN1C(=O)[C@@H]1CCCN1C(=O)CC1Cc2ccccc2C1` [Example 17, 1-[1-(2-indanylacetyl)-L-prolyl]-L-proline]: the response vs control in vivo at 100 mg/kg in the assay with ICR male mice (setting [2]) is 137%.

Regarding `O=C([C@H]1CCCCN1C(=O)CC1Cc2ccccc2C1)N1CCCC1` [Example 11, 1-[1-(2-indanylacetyl)-D-piperidine-2-ylcarbonyl]pyrrolidine], in the assay with ICR male mice (50 mg/kg i.p., 30 minutes before mixed gas, control = 100), the response vs control in vivo at 50 mg/kg was determined as 141%.

`O=C[C@@H]1CCCN1C(=O)[C@@H]1CCCN1C(=O)CC1=Cc2ccccc2C1` [Example 42, 1-[1-(2-indenylacetyl)-L-prolyl]-L-prolinal]: the response vs control in vivo at 100 mg/kg in the assay on ICR male mice (setting [2]) is 168%. Besides, the IC50 in assay [1] worked out at 0.0013 µM.

Consider `O=C([C@@H]1CSCN1C(=O)CC1Cc2ccccc2C1)N1CCSC1` [Example 1, 3-[3-(2-indanylacetyl)-L-thioprolyl]thiazolidine], for which the “Latency to entering into a dark room” value with CD female rats is 77.0 s. Besides, in the assay with ICR male mice (setting [2]), the response vs control in vivo at 100 mg/kg came to 131%.

Take `O=C([C@@H]1CSCN1C(=O)CC1Cc2ccccc2C1)N1CCCC1` [Example 2, 1-[3-(2-indanylacetyl)-L-thioprolyl]pyrrolidine]: in the assay with ICR male mice (setting [2]), the response vs control in vivo at 100 mg/kg came to 127%.

Take `O=C([C@@H]1CCCN1C(=O)CC1=Cc2ccccc2C1)N1CCCC1` [Example 19, 1-[1-(2-indenyl-acetyl)-L-prolyl]pyrrolidine]: in the assay on ICR male mice (setting [2]), the response vs control in vivo at 100 mg/kg came out at 155%.

Take `COc1ccc(C(=O)N2CCCC2=O)cc1` [Aniracetam, reference compound]: in the assay with ICR male mice (setting [3]), the response vs control in vivo at 100 mg/kg amounted to 115% and the response vs control in vivo at 300 mg/kg worked out at 159%. Moreover, in assay [1], the IC50 is > 1000 µM.

For the origin of these results see patent US5028604A, “Condensed benzene derivative” (Zeria Pharmaceutical Co., Ltd., priority 1988, dated 1991).
